Consider one compound from patent US5294539A, “Nitrate reductase from yeasts, the preparation and use thereof” (Merck Patent Gesellschaft mit beschrankter Haftung, priority 1990, dated 1994).

The target of the experiment is NADH-dependent nitrate reductase ([Candida] boidinii, UniProt A0ACB5TRL5).
Sequence of NADH-dependent nitrate reductase (A0ACB5TRL5 entry or part of it): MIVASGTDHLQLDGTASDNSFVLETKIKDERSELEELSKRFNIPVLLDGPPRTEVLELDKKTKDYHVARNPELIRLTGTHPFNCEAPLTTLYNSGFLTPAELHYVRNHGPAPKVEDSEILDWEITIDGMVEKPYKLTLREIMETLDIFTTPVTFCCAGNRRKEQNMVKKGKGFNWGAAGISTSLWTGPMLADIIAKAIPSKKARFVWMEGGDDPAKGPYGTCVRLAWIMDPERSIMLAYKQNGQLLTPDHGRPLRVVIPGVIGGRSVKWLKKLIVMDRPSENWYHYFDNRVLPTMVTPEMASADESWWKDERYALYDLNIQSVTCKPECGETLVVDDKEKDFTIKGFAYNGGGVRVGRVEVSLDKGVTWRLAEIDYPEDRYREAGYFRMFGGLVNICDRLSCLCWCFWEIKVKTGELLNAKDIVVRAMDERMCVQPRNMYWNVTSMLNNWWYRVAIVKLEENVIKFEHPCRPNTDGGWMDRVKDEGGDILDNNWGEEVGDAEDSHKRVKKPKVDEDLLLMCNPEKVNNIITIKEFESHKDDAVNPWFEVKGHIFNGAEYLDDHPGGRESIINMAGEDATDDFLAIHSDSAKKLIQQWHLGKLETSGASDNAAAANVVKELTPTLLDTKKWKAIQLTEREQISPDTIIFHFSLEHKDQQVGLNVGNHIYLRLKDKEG

For the compound `O=NO` [nitrite], the End-product inhibition entry is “up to 50%”.
